Columns and labels:
hPOB-tert cells [1] = experiment: Alkaline phosphatase activity in hPOB-tert cells (Example 2); format: cell-based, human
Experimental: (§1) We have tested three concentrations of hesperetin in the hPOB culture medium seeded to confluence: 1, 10 and 50 μM. Furthermore, these media lacked osteoblast differentiation factors (Vitamin D3 and dexamethasone). The control contained 0.1% DMSO (hesperetin being dissolved in the DMSO). The cells were incubated in these media for 35 days. The alkaline phosphatase activity, a marker of osteoblast differentiation, was measured on a cell lysate by using a commercial kit (Sigma No 247). The cells had been harvested at 0, 4, 8 and 12 days of incubation. The calcium content of the cells, the mineralisation marker, was quantified on a cell lysate after 21 days of incubation in the different media, with the aid of a commercial kit (Sigma No587).

hPOB-tert cells [2] = experiment: Accumulation of calcium in hPOB-tert cells (Example 2); format: cell-based, human; conditions: hesperetin 50 μM, 21 days of incubation, vs control cells (0.1% DMSO)
Experimental: as §1

[3] = test system: oophorectomised rat (OVX) and sham-operated control rats (SH); experiment: Plasma levels of osteocalcin, marker for osteoblast activity (Example 1); format: in vivo, Wistar rats; conditions: Hp SH vs T SH, p<0.05 (FIG. 4)
Text: (§2) In order to study the possible impact of this molecule on bone tissue, 40 female 3 months old Wistar rats (266±2 g) were used. These animals were accustomed to a basic semi-synthetic diet for the 7 days preceding the start of the period of experimentation. At D0, 20 rats were sham-operated, the other 20 were oophorectomised. Distributed in groups of 10, they were fed on various diets for 3 months, at the end of which they were sacrificed. The last week before being killed, from D85 to D90, the rats were inspected and the urine was collected (over a period of 24 hours). Similarly, the body composition of the rats was measured. After being killed the plasma and the femurs were collected for different analyses [Femurs: resistance to rupture, densitometry; Plasma: osteocalcinemia (marker for osteoblast activity), hesperetin level: Urines: desoxypyridinoline (marker for bone resorption)]. Throughout the entire duration of the experimentation, the rats were weighed once a week. The daily quantity of food distributed to each animal was 20 g.
(§3) 10 T SH and 10 T OVX: sham-operated and oophorectomised rats receiving a standard control diet for 3 months
(§4) 10 Hp SH et 10 Hp OVX: sham-operated and oophorectomised rats receiving a standard control diet supplemented with hesperidin (0.5%) for 3 months

[4] = Circulating levels of hesperetin (Example 1); format: in vivo, Wistar rats; conditions: OVX and SH rats receiving diet supplemented with hesperidin 0.5%, 3 months
Text: as §2, §4

[5] = test system: oophorectomised rat (OVX) and sham-operated control rats (SH); experiment: Femoral biomechanics (Example 1); format: in vivo, Wistar rats
Text: as §2, §3, §4

[6] = test system: oophorectomised rat (OVX) and sham-operated control rats (SH); experiment: Urinary excretion of desoxypyridinoline, marker for bone resorption (Example 1); format: in vivo, Wistar rats
Text: as §2, §3, §4

[7] = test system: six months' old oophorectomised rat; experiment: Uterine weight, six months' old rats (Example 3); format: in vivo, Wistar rats
Experimental: (§5) The experiments were performed on 48 six months' old female Wistar rats: 24 oophorectomised (OVX) and 24 sham-operated (SH).
(§6) After the surgical operation on D0, the animals were given seven days to accustom themselves to their surroundings. At the end of this period of adaptation, the rodents were distributed on the basis of weight parameters in 4 homogeneous groups and received daily for 72 days 22 g of the following diets: • group SH: 12 sham-operated rats fed with the control diet • group OVX: 12 oophorectomised rats which received the control diet • group SH Hp: 12 sham-operated rats fed with the hesperidin diet • group OVX Hp: 12 oophorectomised rats which received the hesperidin diet
When sacrificed (D90), the animals were anesthetised by an intra-peritoneal injection of chloral (Fluka: 8% solution; 0.4 ml/100 g live weight). Blood samples were collected from the abdominal aorta. The uterus was weighed.

[8] = test system: six months' old oophorectomised rat; experiment: Biomechanical properties of the femur, six months' old rats (Example 3); format: in vivo, Wistar rats; conditions: hesperidin diet (FIG. 14)
Experimental: as §5, §6
The mechanical properties of the femur of the individuals of the different groups of animals were analysed.

[9] = test system: oophorectomised rat (OVX) and sham-operated control rats (SH); experiment: Femoral densitometry (Example 1); format: in vivo, Wistar rats; conditions: for Total femoral density (T-BMD): hesperidin 0.5% in diet, 3 months
Text: as §2, §3, §4
The densities are expressed in g/cm^2.

[10] = test system: oophorectomised rat (OVX) and sham-operated control rats (SH); experiment: Uterine weight (Example 1); format: in vivo, Wistar rats; conditions: 3 months; for uterine weight: hesperidin 0.5% in diet
Text: as §2, §3, §4
The uterine weight was evaluated in order to validate the castration.

[11] = test system: six months' old oophorectomised rat; experiment: Bone mineral density of the femur, six months' old rats (Example 3); format: in vivo, Wistar rats; conditions: six months' old OVX rats, consumption of hesperidin (FIG. 11)
Experimental: as §5, §6
The femurs were extracted and adjacent soft tissues were removed, then the femurs were stored in 80% ethanol for the determination of bone density.

For `COc1ccc([C@@H]2CC(=O)c3c(O)cc(O)cc3O2)cc1O` [hesperetin, (S)-2,3-dihydro-5,7-dihydroxy-2-(3-hydroxy-4-methoxyphenyl)-4H-1-benzopyran-4-one], the “alkaline phosphatase activity (osteoblast differentiation)” value (hPOB-tert cells [1]; hesperetin 1 μM, vs untreated cells, no vitamin D3 or dexamethasone) was “lacks effect”, the “alkaline phosphatase activity (osteoblast differentiation)” value (hPOB-tert cells [1]; hesperetin 10 μM, from the 4th day onwards, plateau on the 8th day) was “increase” and the “alkaline phosphatase activity (osteoblast differentiation)” value (hPOB-tert cells [1]; hesperetin 50 μM, from the 4th day onwards, plateau on the 8th day) was “most efficacious”. The “calcium deposition (calcium content of the cells)” value (hPOB-tert cells [2]) was “stimulate calcium deposition”.
With `COc1ccc([C@@H]2CC(=O)c3c(O)cc(O[C@@H]4O[C@H](CO[C@@H]5O[C@@H](C)[C@H](O)[C@@H](O)[C@H]5O)[C@@H](O)[C@H](O)[C@H]4O)cc3O2)cc1O` [hesperidin, (S)-7-[[6-0-(6-deoxy-α-L-mannopyranosyl)-β-D-glucopyranosyl]oxy]-2,3-dihydro-5-hydroxy-2-(3-hydroxy-4-methoxyphenyl)-4H-1-benzopyran-4-one] the “plasma levels of osteocalcin (bone accretion)” value [3] was “stimulates bone accretion”, the “mean plasma level of aglycone (hesperetin)” value [4] was 12.53 ± 2.48 µM and the “Femoral resistance to rupture” value ([5]; Hp SH: sham-operated rats, hesperidin 0.5% in diet, 3 months) was 106.3 ± 5.3 N. For the same compound, the “femoral resistance to rupture, effect in words” value ([5]; oophorectomised rats, diet supplemented with hesperidin) was “tendency to improve”, the “urinary excretion of DPD” value ([6]; Hp SH rats in comparison with T SH) was “significantly diminished” and the “urinary excretion of desoxypyridinoline: increase of bone resorption induced by oophorectomy” value ([6]; OVX rats, consumption of hesperidin (FIG. 3)) was “prevented”. The “uterine atrophy following ovarian ablation” value ([7]; OVX rats, consumption of hesperidin (FIG. 10)) was “not prevented”, the uterotrophic effect ([7]; six months' old rats, hesperidin diet (FIG. 10)) was “lacks a uterotrophic effect” and the “biomechanical properties of the femur (femoral load at rupture)” value ([8]; OVX Hp: six months' old oophorectomised rats) was “preserve them”. The “biomechanical properties of the femur (femoral load at rupture)” value ([8]; intact (sham-operated) six months' old rats) was “improve them”, the “Total femoral density (T-BMD)” value ([9]; Hp OVX: oophorectomised rats) was 0.2445 g/cm^2 and the “Total femoral density (T-BMD)” value ([9]; Hp SH: sham-operated rats) was 0.2501 g/cm^2. For the same compound, the “diaphyseal femoral density, effect in words” value ([9]; both OVX and SH rats vs groups on standard diet, p<0.05) was “significantly improves”, the “metaphyseal femoral density (M-BMD)” value ([9]; intact or oophorectomised rats on hesperidin diet vs standard diet (FIG. 2)) was “increase” and the “metaphyseal femoral density (M-BMD), mineralisation” value ([9]; non-castrated animals, by comparison with T SH) was “improvement of the mineralisation”. For the same compound, the “total femoral density, effect on demineralisation induced by oophorectomy” value ([9]; oophorectomised rats, consumption of hesperidin) was “completely prevents this demineralisation”, the “total femoral density, effect in words” value ([9]; sham-operated (SH) rats, consumption of hesperidin) was “significantly improves” and the uterine weight ([10]; Hp OVX: oophorectomised rats, ** p<0.01 vs SH) was 238.6 ± 2.23** mg. For the same compound, the uterine weight ([10]; Hp SH: sham-operated rats) was 659.4 ± 8.96 mg, the uterotrophic effect ([10]; uterine weight not modified by consumption of hesperidin 0.5% in diet) was “lack a uterotrophic effect” and the “demineralisation of the femur (total bone mineral density)” value [11] was “prevented (at least partially)”.

From patent publication US8859612B2, “Use of hesperidin or one of its derivatives for making a medicine for bone formation stimulation” (Institut National de la Recherche Agronomique (INRA), priority 2002, dated 2014)
